From patent publication US20250289785A1, “INDOLE DERIVATIVE, METHOD FOR PREPARING SAME, AND USE THEREOF” (MITOIMMUNE THERAPEUTICS INC., priority 2021, published 2025)

What was measured:
[1] = Plasma and brain concentration after oral administration to ICR mice (HPLC-MS/MS); assay type: in vivo; details: ICR mouse, 10 mg/kg, 2 hours after administration
Procedure: […] parameters can be represented as maximum concentration in plasma (Cmax), time taken until maximum concentration in plasma (Tmax), area under the plasma concentration-time curve (AUClast and AUCinf), and half-life (t1/2), and the like.
The compound of example 2 was orally administered to ICR mice at a dose of 10 mg/kg, and drug concentration in mouse plasma was measured using HPLC-MS/MS spectroscopy at 0.5, 1, 2, 4, 8 and 24 hours. The mouse brains were removed at 2 or 24 hours, and drug concentration in the brain was measured using HPLC-MS/MS spectroscopy. The area under the plasma concentration v. time curve (AUCinf) was measured to be […], and at 2 hours after administration drug concentration in plasma was 546 ng/mL and brain drug concentration was measured at 1043 ng/mL. […] Further, at 24 hours after administration, for Embodiment 2, drug concentration in plasma was measured to be 4.7 ng/mL and drug concentration in the brain was measured at 5.7 ng/mL. With the brain-plasma drug concentration ratio at 1.23, drug exposure in the brain was still high.
The Comparative Example compound was orally administered to ICR mice at a dose of 10 mg/kg, and drug concentration in mouse plasma was measured using HPLC-MS/MS spectroscopy at 0.5, 1, 2, 4, 8 and 24 hours. The mouse brains were removed at 2 or 24 hours, and drug concentration in the brain was measured using HPLC-MS/MS spectroscopy.

H9C2 cells = assay: Cell protection effect against t-BHP in heart cells (LDH release); assay type: cell-based; details: H9C2, t-BHP 40 μM, 2 hours
Procedure: In order to identify the protective effect with regard to heart cells, H9C2 cells were divided into 96-well plates by 1.5×10^4, and cultured for 24 hours. The respective wells were treated with compounds of the examples 3× serial diluted to final concentrations of […], then cultured for 15 to 20 minutes. After treating with t-BHP with a final concentration of 40 μM, culturing was performed for 2 hours. In order to identify the protective effect of each compound, a Cytotoxicity LDH assay kit [Dojindo; CK12] was used to measure the degree of extracellular secretion of LDH. To describe briefly, at the time point 2-hour treatment of the cells with t-BHIP was completed, 100 μL each of the supernatant in which the cells were placed was collected and moved to a new 96-well plate. 100 μL/well of the assay buffer included in the kit (same amount as the sample) was added, followed by wrapping with foil and reacting for 30 minutes at room temperature. Observing the change in color of the sample, 50 μL/well of stop solution was added, then an iD3 spectrometer was used to measure absorbance at 490 nm and calculate the EC50 values. The EC50 of the compounds of the examples is preferably no more than 1.0 μM, and more preferably no more than 0.3 μM.

brain drug concentration [1] [ng/mL] | drug concentration in plasma [1] [ng/mL] | EC50 (H9C2 cells) [nM] | Structure (SMILES)
95.1 | 1122.4 |  | OCc1cc(NC2CCCC2)c2[nH]c(-c3ccccc3)cc2c1 [Comparative Example, reference compound]
 |  | ≤ 300 | CCCOCc1cc(NC2CCOCC2)c2[nH]c(-c3ccccc3)cc2c1 [Example 47, 2-phenyl-5-(propoxymethyl)-N-(tetrahydro-2H-pyran-4-yl)-1H-indol-7-amine]
 |  | ≤ 300 | c1ccc(-c2cc3cc(COCC4CC4)cc(NC4CCOCC4)c3[nH]2)cc1 [Example 48, 5-((cyclopropylmethoxy)methyl)-2-phenyl-N-(tetrahydro-2H-pyran-4-yl)-1H-indol-7-amine]
 |  | ≤ 300 | CCOCc1cc(NCC2CCOCC2)c2[nH]c(-c3ccccc3)cc2c1 [Example 49, 5-(ethoxymethyl)-2-phenyl-N-((tetrahydro-2H-pyran-4-yl)methyl)-1H-indol-7-amine]
 |  | ≤ 300 | COCCCc1cc(NC2CCOCC2)c2[nH]c(-c3ccccc3)cc2c1 [Example 50, 5-(3-methoxypropyl)-2-phenyl-N-(tetrahydro-2H-pyran-4-yl)-1H-indol-7-amine]
 |  | ≤ 300 | CCOCCCc1cc(NC2CCOCC2)c2[nH]c(-c3ccccc3)cc2c1 [Example 51, 5-(3-ethoxypropyl)-2-phenyl-N-(tetrahydro-2H-pyran-4-yl)-1H-indol-7-amine]
